Experimental data published in patent US20230322933A1, “MODEL FOR PREDICTION OF TOLERABILITY ISSUES IN CONNECTION WITH INTRAVENOUS ADMINISTRATION OF THERAPEUTIC ANTIBODIES” (BIOINVENT INTERNATIONAL AB, priority 2020, published 2023).
Values joined by “and” are separate entries in the source; they are usually repeats but may differ in a detail not shown here. Equal entries are not always repeated. “Also recorded” adds a separate entry of the source.

Key:
wildtype C57/BL6 mice [1] = test: Macroscopic IRRs (scoring 0-2) in mice after injection of surrogate antibody, with or without premedication or split-dosing; assay type: in vivo, mouse; design: key to grade of macroscopic symptoms with single premedication: 0: No visible symptoms; 1: Isolation, decreased activity; 2: Isolation, decreased activity, impaired balance, piloerection, hunching followed by un-natural body posture; details: for effect of anti-histamine premedication alone on IRRs / macroscopic symptoms: pre i.v. injection of 10 mg/kg AT-130-2 IgG2a; for effect of adding anti-histamine to two doses of corticosteroid: with 40 mg/kg Betamethasone (24 hours and 1 hour) pre i.v. 10 mg/kg AT-130-2 IgG2a, macroscopic symptoms and platelet counts; for inhibition of IRRs by other pre-medications: given i.p. 1 h prior to i.v. AT-130-2 IgG2a bulk dose 200 ug/mouse
Procedure: Six to eight weeks-old (17-20 g) female C57/BL6 and Balb C mice were obtained from Taconic or Janvier. Mice were injected i.v with mouse anti-CD32B AT-130-2 IgG2a either as a bulk dose of 200 ug/mouse or as a split-dose with 8 ug/mouse followed by 200 ug/mouse.
For the corticosteroid treatment, Betapred (betamethasone, VNR: 008938, Alfasigma S.P.A.) was used at 10 mg/kg which is a suboptimal dose in these mouse models.
Split-dosing was initiated 24 h post corticosteroid treatment with 8 ug/mouse of mouse anti-CD32B AT-130-2 IgG2a i.v. followed by a bulk-dose of 200 ug/mouse 20-40 minutes later. In parallel mice were injected with only the bulk-dose.
Mice were monitored post injection with regards to changes in behavior and macroscopic symptoms such as isolation, mobility, and fur condition. Macroscopic IRRs scoring system of 0-2 was set up based on the observations.
Other premedications evaluated were anti-PAF (CV3988, sc-201015, Santa Cruz 20 mg/kg), anti-IL6 (clone 15A7, BE0047, Bioxcell, 10 mg/kg), anti-histamine (Zantac, VNR: 077875, GlaxoSmithKline AB, 5 mg/kg) or a leukotriene-antagonist (131064, Apoex, 4 mg/kg). These premedications were given i.p 1 h prior to injection i.v of mouse anti-CD32B AT-130-2 IgG2a as a bulk dose of 200 ug/mouse.
Six to eight weeks-old (17-20 g) female C57/BL6 mice were obtained from Taconic. Mice were injected either intra-venous (i.v.), […] (i.p.) or sub-cutaneous (s.c.) with mouse anti-CD32B AT-130-2 IgG2a in doses ranging from 1 μg-400 μg/mouse.
For the corticosteroid treatment, Betapred (betamethasone, VNR: 008938, Alfasigma S.P.A.) or Dexamethasone (Cat. No: S1322, batch no: 02, Selleckchem) was used. For the anti-histamine treatment Zyrlex (10 mg/ml, VNR: 523084, MACURE PHARMA ApS), Zantac (25 mg/ml, VNR: 077875, GlaxoSmithKline AB) or Aeurius (0.5 mg/ml, VNR: 097288, Merck Sharp & Dohme BV) was used.
Mice were monitored post injection with regard to changes in behavior and macroscopic symptoms such as isolation, mobility, and fur condition. Macroscopic IRRs scoring system of 0-2 was set up based on the observations: […]
For the corticosteroid treatment, Betapred (betamethasone, VNR: 008938, Alfasigma S.P.A.) or Dexamethasone (Cat. No: S1322, Batch No: 02, Selleckchem) was used.

wildtype C57/BL6 mice [2] = test: Platelet counts in fresh mouse blood (Vetscan) after antibody injection; assay type: in vivo; details: pre i.v. injection of 10 mg/kg AT-130-2 IgG2a
Procedure: Blood samples were collected from vena saphena 20 min post injection of bulk dose of anti-CD32B for instant blood count analysis. For liver enzyme and cytokine analysis, the mice were bled from the aorta under isoflurane anesthesia just prior to sacrifice. Samples for liver enzymes and cytokines were collected 1 h and respectively 3 h after bulk dose.
Platelet counts were analyzed in fresh blood using a Vetscan (Vetscan HM5 Abaxis, Triolab).
Blood samples were collected from vena saphena for instant blood count analysis. For serum concentrations of AT130-2, liver enzyme and cytokine analysis, the mice were bled from the aorta under isoflurane anesthesia just prior to sacrifice.
Blood samples were collected from vena saphena for instant blood count analysis.

mouse CD32B (mouse) = mouse CD32B (mouse) (UniProt P08101); test: receptor saturation at 10 µg/ml AT-130-2; separate experiments not shown in the filing
Sequence of mouse CD32B (mouse) (P08101 30-207 limits assumed): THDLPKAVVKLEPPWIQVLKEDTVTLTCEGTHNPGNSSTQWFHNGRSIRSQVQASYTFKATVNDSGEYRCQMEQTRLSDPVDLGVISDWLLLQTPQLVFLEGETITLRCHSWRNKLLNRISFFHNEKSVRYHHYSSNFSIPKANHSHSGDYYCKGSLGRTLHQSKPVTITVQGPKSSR

FcγRIIB = target: T1, FcγRIIB (Homo sapiens, UniProt P31994); test: FcgRIIb receptor occupancy on peripheral B cells (flow cytometry); assay type: in vivo; details: 100 mg BI-1206; preliminary data
T1 construct: endogenous in cells; host or cells: peripheral CD19+ B cells in whole blood of human subjects (B-cell NHL / CLL patients)
T1 sequence (P31994 43-310): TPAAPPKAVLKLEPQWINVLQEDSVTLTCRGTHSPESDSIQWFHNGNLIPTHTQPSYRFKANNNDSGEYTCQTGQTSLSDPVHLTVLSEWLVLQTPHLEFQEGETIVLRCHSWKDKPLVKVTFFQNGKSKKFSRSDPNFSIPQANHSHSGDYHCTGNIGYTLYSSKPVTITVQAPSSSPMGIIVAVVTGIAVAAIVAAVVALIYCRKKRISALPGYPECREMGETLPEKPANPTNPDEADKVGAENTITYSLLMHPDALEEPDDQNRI
Procedure: The FcgRIIb receptor occupancy in humans and hFcgRIIb transgenic mice was analyzed using flow cytometry. Whole blood from was incubated with either 005-005 antibody (targeting hFcgRIIb) or anti-hCD32-AF647 antibody. 005-005 binds the same epitope as BI-1206 but with much lower affinity. In the analysis, the Geo Mean of respectively mAb (005-005 and anti-human CD32) was acquired on the CD19+ cell population. Receptor occupancy (RO) was calculated using the following equations: RO (%)=((Total Receptors-Normalized Free Receptors)*100)/Total Receptors. All replicates of 005-005 geo mean of CD19+ cells were then multiplied by the Normalization factor.

peripheral B lymphocytes = test: Peripheral B lymphocyte depletion after BI-1206 infusion; assay type: in vivo, human; details: 100 mg BI-1206; preliminary data
[3] = test system: human subjects with non-hodgkins B-cell lymphoma; test: Cytokine release in plasma/serum after BI-1206 infusion (MSD); assay type: in vivo; details: ≥70 mg (70-100 mg) BI-1206
Procedure: For cytokine concentrations, frozen plasma samples were thawed and diluted ×2 and x8. Two parallel set of cytokines were analyzed, the proinflammatory assay with IL-6, IL-8, TNF-α, IFN-γ, IL-10, IL-2 and IL-4 (MesoScale Discovery (MSD) #K15049), and the chemokine assay with MIP-113, IL-113, IL-23, IL-12p70, TARC and VEGF (MSD #K15067). The assays followed the manufacturer's protocol as outlined briefly: 50 μL of sample and calibration standard were added to the appropriate MSD plates and incubated. Following washing, 25 μL of SULFO-TAG detection antibody mixture were added to each well of the corresponding plate. The plates were analyzed on a QuickPlex SQ120 Reader instrument (MSD) and cytokine concentration was calculated using the MSD software (Discovery Workbench, 2013; version LSR-4-0-12).

[4] = test system: human subjects with non-hodgkins B-cell lymphoma; test: Clinical response in patients treated with BI-1206; assay type: in vivo; details: after incorporation of the premedication regimen into the clinical protocol
[5] = test system: human subjects with non-hodgkins B-cell lymphoma; test: ALT/AST in clinical studies with BI-1206; details: ≥70 mg (70-100 mg) BI-1206
Text: (§1) Platelet counts, ALT concentrations and IRR grading Platelet counts, ALT concentrations and IRR grading were obtained from clinical sites where analyzed and reported according local standard procedures.

[6] = test system: human subjects with non-hodgkins B-cell lymphoma; test: Platelet counts in clinical studies with BI-1206
Text: as §1

[7] = test system: human subjects with non-hodgkins B-cell lymphoma; test: Infusion related reactions (IRR grading) in clinical studies with BI-1206
Text: as §1
Part of the data is based on personal communication with individual investigators.

Clc1ccc2c(c1)CCc1cccnc1C2=C1CCNCC1 [Aeurius]
effect of anti-histamine premedication alone on IRRs / macroscopic symptoms (wildtype C57/BL6 mice [1]; 10 mg/kg): did not inhibit IRRs or platelet decrease | effect of anti-histamine premedication alone on IRRs / macroscopic symptoms (wildtype C57/BL6 mice [1]; listed as Au, 10 mg/kg): The same results were seen | effect of adding anti-histamine to two doses of corticosteroid (wildtype C57/BL6 mice [1]): the protective effect was retained | effect of anti-histamine premedication alone on platelet decrease (wildtype C57/BL6 mice [2]): did not inhibit IRRs or platelet decrease

O=C(O)COCCN1CCN(C(c2ccccc2)c2ccc(Cl)cc2)CC1 (centres unmarked) [Zyrlex]
effect of anti-histamine premedication alone on IRRs / macroscopic symptoms (wildtype C57/BL6 mice [1]; 10 mg/kg): The same results were seen; also recorded: did not inhibit IRRs or platelet decrease | effect of adding anti-histamine to two doses of corticosteroid (wildtype C57/BL6 mice [1]): the protective effect was retained | effect of anti-histamine premedication alone on platelet decrease (wildtype C57/BL6 mice [2]): did not inhibit IRRs or platelet decrease

CCCCCCCCCCCCCCCCCCNC(=O)OCC(COP(=O)([O-])OCC[n+]1ccsc1)OC (stereo not drawn) [anti-PAF]
inhibition of IRRs by other pre-medications (wildtype C57/BL6 mice [1]): None of these pre-medications could inhibit IRRs; also recorded: none of the tested substances (anti-PAF, anti-IL-6, anti-histamine and a leukotrien-antagonist) could prevent the IRRs

CC(C)(C)c1ccc(C(O)CCCN2CCC(C(O)(c3ccccc3)c3ccccc3)CC2)cc1 (stereo not drawn) [anti-histamine]
inhibition of IRRs by other pre-medications (wildtype C57/BL6 mice [1]): None of these pre-medications could inhibit IRRs; also recorded: none of the tested substances (anti-PAF, anti-IL-6, anti-histamine and a leukotrien-antagonist) could prevent the IRRs | effect of anti-histamine premedication alone on IRRs / macroscopic symptoms (wildtype C57/BL6 mice [1]): did not inhibit macroscopic symptoms | effect of adding anti-histamine to two doses of corticosteroid (wildtype C57/BL6 mice [1]): did not affect macroscopic symptoms or platelet counts | effect of anti-histamine premedication alone on platelet decrease (wildtype C57/BL6 mice [2]): did seem to improve decrease in platelet counts

C[C@H]1C[C@H]2[C@@H]3CCC4=CC(=O)C=C[C@]4(C)[C@@]3(F)[C@@H](O)C[C@]2(C)[C@@]1(O)C(=O)CO [betamethasone]
grade of macroscopic symptoms with single premedication (wildtype C57/BL6 mice [1]; 40 mg/kg only 24 hours before i.v. 10 mg/kg AT-130-2 IgG2a): 1

AT-130-2 IgG2a (antibody)
receptor saturation (mouse CD32B (mouse)): 100%

BI-1206: anti-FcγRIIb antibody with light chain SEQ ID No:1 and heavy chain SEQ ID No:2
duration of receptor saturation (FcγRIIB): up to 48 hours | receptor occupancy on peripheral B cells (FcγRIIB): ~100% | peripheral B lymphocytes (peripheral B lymphocytes): transient depletion of peripheral B lymphocytes | time to recovery of peripheral B lymphocytes (peripheral B lymphocytes): approximately 7 days | time to normalization of cytokines [3]: ≤ 24 h | clinical responses [4]: Both complete and partial responses have been observed | subjects with significant ALT and AST increase [5]: 3/14 and 3 out of 16 | platelet decrease ([6]; 70 mg BI-1206, subjects 501-001 and 503-002, two doses of dexamethasone): no/low platelet decrease | seriousness and resolution of thrombocytopenia ([6]; 70-100 mg / ≥50 mg BI-1206): The decrease is transient and most episodes have been resolved within a week; also recorded: has not been serious nor associated with bleeding and most episodes resolved within a week | platelets ([6]; ≥50 mg BI-1206): transient decrease in platelets | grade of IRR's ([7]; 30 mg BI-1206, subject 201-003, 10th administration, two doses of dexamethasone): 1 | IRRs ([7]; 70 mg BI-1206, subjects 501-001 and 503-002, dexamethasone 12 mg or 4 mg the evening before and 20 mg 30 minutes prior): None of the subjects suffered any IRRs; also recorded: Both subjects did not suffer IRRs | grade of IRRs ([7]; 70 mg BI-1206, subjects 501-001 and 503-002, dexamethasone (20 mg) only 30 minutes prior to infusion): 2-3 grade | severity and frequency of IRRs after implementation of premedication with two doses of corticosteroids ([7]; 70-100 mg BI-1206, study 17-BI-1206-02): Significantly lower frequency and severity of IRRs; also recorded: statistically significant reduced severity and frequency of IRRs | infusion related reactions during BI-1206 infusions ([7]; i.v. administration, human subjects): frequently associated with IRRs; also recorded: Frequent infusion related reactions (IRRs) have been seen
